Measurements: patent publication US10087191B2, “Piperidine derivative and preparation method and pharmaceutical use thereof” (Jiangsu Hengrui Medicine Co., Ltd., priority 2015, dated 2018)

Assays:
[1] = molecular target: estrogen receptor (ER) (Homo sapiens (Human), UniProt P03372); test: Inhibition of the binding of estrogen (E) to estrogen receptor (ER), MCF-7/ERE-luciferase reporter cells; assay type: cell-based; settings: MCF-7/ERE-luciferase cells, 0.1 nM estradiol, 24 hours; read-out: IC50 value of inhibition effect on the binding of E to ER
Description: The inhibition effect of the compounds on the binding of E to ER in vitro was tested by the following method.
The object of this experiment was to determine the inhibition effect of the compounds on the binding of E to ER, and the in vitro activity of the compounds was evaluated according to the IC50 value.
MCF-7/ERE-luciferase cells were inoculated into the MEM medium (hyclone, SH30024.01B) containing 10% charcoal stripped FBS (Moregate, FBSF), 1% sodium pyruvate (Sigma, Cat. No. S8636), 1% nonessential amino acids (Sigma, Cat. No. M7145) and 500 μg/ml G418 in a 96-well plate with a density of 30,000 cells/well, and the cells were incubated under the conditions of 37° C. and 5% CO2. […] After incubation for 24 hours, the medium was removed, then 0.1 nM estradiol (Sigma, Cat. No. E2758) and 10 μl of the drug diluted with the medium were added to each well, and the control group was added with DMSO. The plate was gently shaken and incubated in a incubator at 37° C., 5% CO2. After 24 hours, the cell culture medium was discarded.
The inhibition effect of the compounds of the present invention on the binding of E to ER was tested by the experiment described above.

[2] = test system: MCF7 cells; test: Inhibition of the proliferation of MCF7 cells (Cell Titer-Glo); assay type: cell-based; settings: Homo sapiens, MCF-7 cells, 72 hours, read-out: IC50 value of inhibition effect on the proliferation of MCF7 cells
Description: The object of this experiment was to determine the inhibition effect of the compounds on the proliferation activity of MCF7 cells, and the in vitro activity of the compounds was evaluated according to the IC50 value.
After incubation for 24 hours, the medium was removed, then 90 μl of the medium containing 2% FBS and 10 μl of the drug were added to each well, 10 μl of DMSO were added to the control group, and the blank group contained only 100 μl medium containing 2% FBS. The plate was gently shaken and incubated in a incubator at 37° C., 5% CO2. After 72 hours, 50 μl of mixed Cell Titer-Glo (Promega, Cat. No. G7571) were added to each well. The plate was shaken until the ingredients were well mixed, and placed at room temperature for 10 minutes, then the chemiluminescence signal value was determined.
The values of the chemiluminescence signals vs the logarithmic concentrations of the compounds were plotted using Graghpad Prism to obtain IC50 values.

Chain of estrogen receptor (ER) (P03372 whole entry): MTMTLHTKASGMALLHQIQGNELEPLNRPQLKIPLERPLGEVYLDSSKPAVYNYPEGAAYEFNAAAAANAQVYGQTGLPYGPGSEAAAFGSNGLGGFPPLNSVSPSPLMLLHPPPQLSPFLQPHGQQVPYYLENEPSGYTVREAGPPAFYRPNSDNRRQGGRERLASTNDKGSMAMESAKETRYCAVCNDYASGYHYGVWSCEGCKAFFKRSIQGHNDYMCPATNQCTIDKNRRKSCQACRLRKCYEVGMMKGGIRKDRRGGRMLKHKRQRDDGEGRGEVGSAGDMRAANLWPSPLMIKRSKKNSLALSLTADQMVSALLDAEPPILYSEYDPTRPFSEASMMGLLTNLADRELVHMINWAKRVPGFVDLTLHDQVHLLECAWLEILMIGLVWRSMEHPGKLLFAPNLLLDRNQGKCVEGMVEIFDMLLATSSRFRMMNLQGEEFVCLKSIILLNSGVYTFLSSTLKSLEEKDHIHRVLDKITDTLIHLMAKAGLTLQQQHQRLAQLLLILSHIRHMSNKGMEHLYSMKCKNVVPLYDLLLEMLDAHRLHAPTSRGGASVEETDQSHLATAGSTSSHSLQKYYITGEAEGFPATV

| SMILES | IC50 [1] | IC50 [2] |
| --- | --- | --- |
| CC1Cc2cc(NC(=O)OC(C)(C)C)ccc2C(c2c(F)cc(/C=C/C(=O)O)cc2F)N1CC(C)(C)F [Example 31, (E)-3-(4-((1S,3R/1R,3S)-6-((tert-butoxycarbonyl)amino)-2-(2-fluoro-2-methylpropyl)-3-methyl-1,2,3,4-tetrahydroisoquinolin-1-yl)-3,5-difluorophenyl)acrylic acid] | 84.1 nM |  |
| CC1Cc2cc(OCC#N)ccc2C(c2c(F)cc(/C=C/C(=O)O)cc2F)N1CC(C)(C)F [Example 33, (E)-3-(4-((1S,3R/1R,3S)-6-(cyanomethoxy)-2-(2-fluoro-2-methylpropyl)-3-methyl-1,2,3,4-tetrahydroisoquinolin-1-yl)-3,5-difluorophenyl)acrylic acid] | 37.7 nM | 7.78 nM |
| CC1Cc2cc(C3CC3)ccc2C(c2c(F)cc(/C=C/C(=O)O)cc2F)N1CC(C)(C)F [Example 34, (E)-3-(4-((1S,3R/1R,3S)-6-cyclopropyl-2-(2-fluoro-2-methylpropyl)-3-methyl-1,2,3,4-tetrahydroisoquinolin-1-yl)-3,5-difluorophenyl)acrylic acid] | 18.4 nM |  |
| CC1Cc2cc(OC3CCOCC3)ccc2C(c2c(F)cc(/C=C/C(=O)O)cc2F)N1CC(C)(C)F [Example 36, (E)-3-(3,5-difluoro-4-((1S,3R/1R,3S)-2-(2-fluoro-2-methylpropyl)-3-methyl-6-((tetrahydro-2H-pyran-4-yl)oxy)-1,2,3,4-tetrahydroisoquinolin-1-yl)phenyl)acrylic acid] | 24.9 nM |  |
| CC1Cc2cc(O[C@H]3CCOC3)ccc2C(c2c(F)cc(/C=C/C(=O)O)cc2F)N1CC(C)(C)F (stereo partly drawn) [Example 37, (E)-3-(3,5-difluoro-4-((1S,3R/1R,3S)-2-(2-fluoro-2-methylpropyl)-3-methyl-6-(((S)-tetrahydrofuran-3-yl)oxy)-1,2,3,4-tetrahydroisoquinolin-1-yl)phenyl)acrylic acid] | 13.7 nM | 4.79 nM |
| CC1CN(c2ccc3c(c2)CC(C)N(CC(C)(C)F)C3c2c(F)cc(/C=C/C(=O)O)cc2F)CCO1 [Example 38, (E)-3-(3,5-difluoro-4-((1S,3R/1R,3S)-2-(2-fluoro-2-methylpropyl)-3-methyl-6-(2-methylmorpholino)-1,2,3,4-tetrahydroisoquinolin-1-yl)phenyl)acrylic acid] | 4.42 nM | 1.34 nM |
| CC1Cc2cc(N3CCN(C)C(=O)C3)ccc2C(c2c(F)cc(/C=C/C(=O)O)cc2F)N1CC(C)(C)F [Example 39, (E)-3-(3,5-difluoro-4-((1S,3R/1R,3S)-2-(2-fluoro-2-methylpropyl)-3-methyl-6-(4-methyl-3-oxopiperazin-1-yl)-1,2,3,4-tetrahydroisoquinolin-1-yl)phenyl)acrylic acid] | 14.2 nM | 2.34 nM |
| CC1Cc2cc(N3Cc4ccncc4C3)ccc2C(c2c(F)cc(/C=C/C(=O)O)cc2F)N1CC(C)(C)F [Example 42, (E)-3-(3,5-difluoro-4-((1S,3R/1R,3S)-2-(2-fluoro-2-methylpropyl)-3-methyl-6-(1H-pyrrolo[3,4-c]pyridin-2(3H)-yl)-1,2,3,4-tetrahydroisoquinolin-1-yl)phenyl)acrylic acid] | 8.1 nM | 5 nM |
| C[C@H]1Cc2c(oc3ccccc23)[C@H](c2c(F)cc(/C=C/C(=O)O)cc2F)N1CC(C)(C)F [Example 69, (E)-3-(3,5-difluoro-4-((1S,3S)-2-(2-fluoro-2-methylpropyl)-3-methyl-1,2,3,4-tetrahydrobenzofuro[2,3-c]pyridin-1-yl)phenyl)acrylic acid] | 34 nM | 6.41 nM |
| C[C@H]1Cc2cc3c(cc2[C@H](c2c(F)cc(/C=C/C(=O)O)cc2F)N1CC(C)(C)F)OCO3 [Example 72, (E)-3-(3,5-difluoro-4-((5R,7S)-6-(2-fluoro-2-methylpropyl)-7-methyl-5,6,7,8-tetrahydro-[1,3]dioxolo[4,5-g]isoquinolin-5-yl)phenyl)acrylic acid] | 40.9 nM |  |
| CC1Cc2c(ccc3c2OCO3)C(c2c(F)cc(/C=C/C(=O)O)cc2F)N1CC(C)(C)F [Example 82, (E)-3-(3,5-difluoro-4-((6S,8R/6R,8S)-7-(2-fluoro-2-methylpropyl)-8-methyl-6,7,8,9-tetrahydro-[1,3]dioxolo[4,5-f]isoquinolin-6-yl)phenyl)acrylic acid] | 13.6 nM | 4.43 nM |
| CC1Cc2cc(C#N)ccc2C(c2c(F)cc(/C=C/C(=O)O)cc2F)N1CC(C)(C)F [Example 93, (E)-3-(4-((1S,3R/1R,3S)-6-cyano-2-(2-fluoro-2-methylpropyl)-3-methyl-1,2,3,4-tetrahydroisoquinolin-1-yl)-3,5-difluorophenyl)acrylic acid] | 12.9 nM |  |
| C[C@H]1Cc2c(ccc3[nH]ncc23)[C@H](c2c(F)cc(/C=C/C(=O)O)cc2F)N1CC(C)(C)F [Example 95, (E)-3-(3,5-difluoro-4-((6R,8S)-7-(2-fluoro-2-methylpropyl)-8-methyl-6,7,8,9-tetrahydro-3H-pyrazolo[4,3-f]isoquinolin-6-yl)phenyl)acrylic acid] | 29.8 nM |  |
| CCn1cc(-c2ccc3oc4c(c3c2)C[C@H](C)N(CC(C)(C)F)[C@H]4c2c(F)cc(/C=C/C(=O)O)cc2F)cn1 [Example 96, (E)-3-(4-((1S,3S)-6-(1-ethyl-1H-pyrazol-4-yl)-2-(2-fluoro-2-methylpropyl)-3-methyl-1,2,3,4-tetrahydrobenzofuro[2,3-c]pyridin-1-yl)-3,5-difluorophenyl)acrylic acid] | 31.2 nM |  |

The remaining lines, values ahead:

| IC50 [1] | IC50 [2] | SMILES |
| --- | --- | --- |
| 4.98 nM | 2.66 nM | Cc1ccc(-c2ccc3c(c2)CC(C)N(CC(C)(C)F)C3c2c(F)cc(/C=C/C(=O)O)cc2F)s1 [Example 43, (E)-3-(3,5-difluoro-4-((1S,3R/1R,3S)-2-(2-fluoro-2-methylpropyl)-3-methyl-6-(5-methylthiophen-2-yl)-1,2,3,4-tetrahydroisoquinolin-1-yl)phenyl)acrylic acid] |
| 9.7 nM | 4.86 nM | CC1Cc2cc(-c3cnn(C(C)C)c3)ccc2C(c2c(F)cc(/C=C/C(=O)O)cc2F)N1CC(C)(C)F [Example 50, (E)-3-(3,5-difluoro-4-((1S,3R/1R,3S)-2-(2-fluoro-2-methylpropyl)-6-(1-isopropyl-1H-pyrazol-4-yl)-3-methyl-1,2,3,4-tetrahydroisoquinolin-1-yl)phenyl)acrylic acid] |
| 26 nM |  | CC(C)Cn1cc(-c2ccc3c(c2)CC(C)N(CC(C)(C)F)C3c2c(F)cc(/C=C/C(=O)O)cc2F)cn1 [Example 52, (E)-3-(3,5-difluoro-4-((1S,3R/1R,3S)-2-(2-fluoro-2-methylpropyl)-6-(1-isobutyl-1H-pyrazol-4-yl)-3-methyl-1,2,3,4-tetrahydroisoquinolin-1-yl)phenyl)acrylic acid] |
| 9.41 nM | 3.67 nM | CC1Cc2cc(-c3ncco3)ccc2C(c2c(F)cc(/C=C/C(=O)O)cc2F)N1CC(C)(C)F [Example 54, (E)-3-(3,5-difluoro-4-((1S,3R/1R,3S)-2-(2-fluoro-2-methylpropyl)-3-methyl-6-(oxazol-2-yl)-1,2,3,4-tetrahydroisoquinolin-1-yl)phenyl)acrylic acid] |
| 13.6 nM | 16.1 nM | CC1Cc2cc(-c3cnc4ccccc4c3)ccc2C(c2c(F)cc(/C=C/C(=O)O)cc2F)N1CC(C)(C)F [Example 62, (E)-3-(3,5-difluoro-4-((1S,3R/1R,3S)-2-(2-fluoro-2-methylpropyl)-3-methyl-6-(quinolin-3-yl)-1,2,3,4-tetrahydroisoquinolin-1-yl)phenyl)acrylic acid] |
| 1.7 nM | 0.58 nM | CC1Cc2cc(-c3ccc4ncccc4c3)ccc2C(c2c(F)cc(/C=C/C(=O)O)cc2F)N1CC(C)(C)F [Example 63, (E)-3-(3,5-difluoro-4-((1S,3R/1R,3S)-2-(2-fluoro-2-methylpropyl)-3-methyl-6-(quinolin-6-yl)-1,2,3,4-tetrahydroisoquinolin-1-yl)phenyl)acrylic acid] |
| 3.25 nM | 1.62 nM | Cc1nc2ccc(-c3ccc4c(c3)CC(C)N(CC(C)(C)F)C4c3c(F)cc(/C=C/C(=O)O)cc3F)cc2s1 [Example 66, (E)-3-(3,5-difluoro-4-((1S,3R/1R,3S)-2-(2-fluoro-2-methylpropyl)-3-methyl-6-(2-methylbenzo[d]thiazol-6-yl)-1,2,3,4-tetrahydroisoquinolin-1-yl)phenyl)acrylic acid] |
| 77.5 nM |  | C[C@H]1Cc2cc(-c3ccc4cnccc4c3)ccc2[C@H](c2c(F)cc(/C=C/C(=O)O)cc2F)N1CC(C)(C)F [Example 99, (E)-3-(3,5-difluoro-4-((1R,3S)-2-(2-fluoro-2-methylpropyl)-3-methyl-1,2,3,4-tetrahydro-[6,6′-biisoquinolin]-1-yl)phenyl)acrylic acid] |
